From patent publication US20240158448A1, “MULTIVALENT NANO-'SELF' PEPTIDES AND USES THEREOF” (THE TRUSTEES OF THE UNIVERSITY OF PENNSYLVANIA, priority 2021, published 2024)
Entries after “also recorded” stand apart in the source; their conditions may differ. Read-outs that look alike come from different tables or passages of the source. Values belong to the substance of their own block, whether it stands above or below them. Non-standard residues stand in square brackets, D forms with d. Primed or numbered codes have the meaning given here. No end group written: not given here. PEG5′ = linker of 5 PEG units between residues

Experiments:
human THP-1 macrophages = experiment: In vitro phagocytosis assay: opsonized human RBCs engulfed by peptide-treated THP-1 macrophages; type: cell-based; conditions: for EC50: opsonized human RBCs, human macrophages
Description: In vitro phagocytosis assay. Fresh human RBCs were washed twice with 50 mM EDTA (Thermo Fischer) in PBS (Gibco) then twice with 5% FBS in PBS. RBCs were opsonized with 20 μg/mL rabbit anti-human RBC antibody (Rockland) in 5% FBS for 1 hour at RT with shaking. For CD47 blocked RBCs, 5 μg/mL of mouse anti-human CD47 (B6H12; BD Biosciences) were added. Thereafter, RBCs were washed with PBS three times and stained with PKH26 dye (1:800 dilution in PBS; Sigma) for 1 hour at RT with shaking in the dark. RBCs were washed and resuspended in PBS.
THP-1 monocytes were PMA differentiated in RPMI for 48 hours. Macrophages were then washed with RPMI media three times. For SIRPα blocked THP-1 macrophages, 20 nM, 1 μM or 50 μM of the nano—Self peptides were incubated with the THP-1 macrophages for 1 hour at 37 ° C., 5% CO2 and 95% humidity. Those THP-Is were then washed with RPMI three times.
CO2 and 95% humidity. Macrophages were then washed with RPMI three times. Adherent and uninternalized RBCs were lysed with water for 30 seconds followed by immediate replacement with RPMI media. In order to distinguish remaining adherent RBCs from internalized RBCs, opsonized RBCs were stained with AlexaFluor 647 donkey anti-rabbit (binds to rabbit polyclonal opsonin on RBC; Invitrogen) IgG (1:1000) while unopsonized, CD47 blocked RBCs were stained with AlexaFluor 647 donkey anti-mouse (binds to mouse monoclonal anti-CD47 on RBCs; Invitrogen) IgG (1:1000) for 30 minutes. After washing, macrophages were fixed with 4% formaldehyde for 15 minutes at RT, washed with PBS, stained with 1 μg/mL Hoechst 33342, and then washed with PBS again. Fluorescence imaging was performed as described elsewhere herein and quantification was done using ImageJ. At least 200 cells were analyzed and experiments were repeated at least three times.

THP-1 macrophages = experiment: Phosphotyrosine (pTyr) staining of THP-1 macrophages; type: cell-based, human; conditions: 20 nM peptide
Description: Phosphotyrosine (pTyr) staining. THP-1 monocytes were PMA differentiated for 48 hours. Macrophages were washed with RPMI three times then incubated with 50 μM and 20 nM of either nS-F or nS-FF for 1 hour at 37° C., 5% CO2 and 95% humidity. The same conditions were replicated with the addition of 5 μg/mL anti-CD47. Excess peptide was washed with PBS then macrophages were fixed. […] After washing with PBS, the macrophages were incubated with 1:100 mouse anti-pTyr (Santa Cruz Biotechnology) for 1 hour at room temperature with shaking. Macrophages were washed with PBS then stained with AlexaFluor 488 donkey anti-mouse (1:1000; Invitrogen) and 1 μg/mL Hoechst 33342 for 1 hour with shaking then washed again. Fluorescence imaging and quantification was performed as described elsewhere herein.

[1] = system: mouse bone marrow derived macrophages (BMDMs); experiment: Phagocytosis of anti-TYRP1 opsonized B16F10 melanoma cells by mouse bone marrow derived macrophages; type: cell-based
Description: B16F10 cells: Bone marrow cells were isolated from femurs and tibias of healthy C57BL6/J mice (The Jackson Laboratory) and cultured in 10-cm petri dishes containing IMDM (Gibco) supplemented with 10% v/v FBS, 1% v/v penicillin/streptomycin, and 1:10,000 macrophage colony stimulating factor cytokine (M-CSF; Biolegend) for 7 days at 37° C., 5% CO2 and 95% humidity. All animal experiments were performed according to protocols approved by the University of Pennsylvania's IACUC (protocol #805977 and #804455). The resulting mouse bone marrow derived macrophages (BMDMs) were washed with PBS containing Ca2^+/Mg2^+ (Gibco) then detached with 0.25% trypsin-EDTA (Gibco) and re-plated in 6-well tissue culture plates using IMDM+M-CSF for 24 hours.
Mouse melanoma B16F10 cells were washed with PBS containing Ca2-/Mg2- and then trypsinized with 0.05% trypsin-EDTA. After washing twice with PBS, the cells were labeled with 1:10,000 CFDA—SE (Thermo Fisher) in PBS for 10 minutes. B16F10 cells were opsonized with 10 μg/mL anti-TYRP1 (TA99; Bio X Cell) in PBS for 2 hours at 4° C.with occasional inverting. For CD47 blocked B16F10 cells, 5 μg/mL of […] were added. During the incubation time, the BMDMs were washed with media then stained with 1:2,000 CellTracker Deep Red (Thermo Fisher) in PBS with Ca2^+/Mg2^+ for 10 min. After washing, 50 μM of the nano—Self peptides were incubated with the BMDMs for 1 hour at 37° C., 5% CO2 and 95% humidity. Finally, BMDMs were washed twice with PBS and then twice with serum-free IMDM.
Without removing the supernatant, the opsonized melanoma cells were added to the labeled BMDMs at a ratio of 2:1 for 2 hours at 37° C., 5% CO2 and 95% humidity. During the last 15 minutes of the assay, the cells were Hoechst stained. The wells were washed with serum free IMDM then fixed with 4% formaldehyde for 15 minutes at RT, and PBS washed. Fluorescence imaging was performed using an Olympus IX71 with a digital EMCCD camera (Cascade 512B) and a 40×/0.6 NA objective. Quantification was done with ImageJ (NIH). At least 200 cells were analyzed and two-tailed student's t-test was used to determine statistical significance.

[2] = system: COS-1 (SIRPα negative) cells; experiment: Confocal live staining with FAM-labeled peptides, COS-1 cells; type: binding, monkey; conditions: FAM-labeled peptide
Description: SIRPα staining and confocal imaging. THP-1 monocytes were PMA-differentiated in RPMI 1640 for 24 hours. J774A.1, A549, and COS-1 cells were plated for 24 hours in media, respectively. Cells were washed with respective media prior to addition of fluorescent peptides. The peptides were left to incubate for 1 hour at 37 ° C., 5% CO2 and 95% humidity. For fixed cell staining, cells were incubated with 4% formaldehyde (Pierce) for 15 minutes prior to the addition of fluorescent peptides whereas for live cell staining, fixation was done after incubation with the FAM-labeled peptides. Nuclei were stained with 1 μg/mL Hoechst 33342 (Invitrogen). Cells were the washed PBS three times before analysis. Fluorescence imaging of fixed cells was performed using an Olympus IX71 with a digital EMCCD camera (Cascade 512B) and a 40×/0.6 NA objective. […] Quantification was done with ImageJ (NIH).
In order to visualize the uneven binding of the peptides to the surface of the macrophages, a live staining experiment of THP-1, J774A.1, and A549 cells, which all express SIRPα at different levels, was performed with FAM-labeled nS-wt and nS-X and analyzed by confocal microscopy (FIG. 11). […] Fluorescence of nS-X was consistently lower on THP-1 and J774A.1 macrophages relative to nS-wt. […]

Substance: (VTELFREG-PEG5)2-K (VTELFREG[PEG5′]K[PEG5′]GERFLETV; not fully specified; also: bivalent lysine core) [nS-FF, bivalent nS-F linked through PEG5 linkers to a C-terminal Lys]
effect on phagocytosis of opsonized RBCs (words) (human THP-1 macrophages; 20 nM peptide): successful in activating THP-1 to engulf opRBCs; also recorded: more potent in enhancing phagocytosis
macrophages with at least one opsonized RBC internalized (human THP-1 macrophages; 20 nM peptide, anti-RBC opsonized RBCs, 1 h assay): ~40%
increase in phagocytosis at higher concentration (human THP-1 macrophages; 1 μM, 50 µM versus 20 nM): ~5%
EC50 (human THP-1 macrophages; read-out: efficacy constant (Keff) for phagocytosis): ~8 nM
effect on pTyr signal (THP-1 macrophages): suppressed pTyr at nanomolar concentrations; also recorded: suppressed passivating pTyr intensity; also recorded: suppressed pTyr signal; also recorded: efficiently suppresses phosphorylation
activity of bivalent peptide in primary mouse macrophages [1]: low activity; also recorded: reduced activity with mouse macrophages

EC50 (human THP-1 macrophages; read-out: effective potency (keff) for phagocytosis): ~1000 nM
Substance: VTELTREG [nS-wt, 8-amino acid wild type nano-Self peptide from the CD47 loop, C-terminal amide]
macrophages containing opsonized RBCs (human THP-1 macrophages; maximum peptide concentration 50 μM, anti-RBC opsonized RBCs): ~30%
effect on phagocytosis of opsonized RBCs (words) (human THP-1 macrophages; saturating / 50 μM peptide): least effective among monovalents; also recorded: Lower levels of phagocytosis; also recorded: gives the same result as anti-CD47
binding to COS-1 cells [2]: primarily non-specific
effect on phagocytosis of opsonized WT and SIRPα KO B16 cells ([1]; 50 μM peptide): lower levels
